The text below walks through data of patent US5773464A, “C-10 epoxy taxanes” (Bristol-Myers Squibb Company, priority 1997, dated 1998).

Read-outs that look alike come from different tables or passages of the source.

This assay has as its system HCT-116 human colon carcinoma cells. Nature of the assay: Cytotoxicity assay (MTS), 72 hour exposure. The format is cell-based. As to conditions: HCT-116, 72 h, read-out: Cytotoxicity Assay IC50 (nM) against HCT 116 Human colon tumor cell line. The method, then: Cytoxicity was assessed in HCT-116 human colon carcinoma cells by MTS (3-(4,5-dimethylthiazol-2-yl)-5-(3-carboxymethoxyphenyl)-2-(4-sulphenyl)-2H-tetrazolium, inner salt) assay as reported in T. L. Riss, et. al., "Comparison of MTT, XTT, and a novel tetrazolium compound MTS for in vitro proliferation and chemosensitivity assays.," Mol. Biol. Cell 3 (Suppl.):184a, 1992. Cells were plated at 4,000 cell/well in 96 well microtiter plates and 24 hours later drugs were added and serial diluted. The cells were incubated at 37° form 72 hours at which time the tetrazolium dye, MTS at 333 μg/ml (final concentration), in combination with the electron coupling agent phenazine methosulfate at 25 μM (final concentration) was added. A dehydrogenase enzyme in live cells reduces the MTS to a form that absorbs light at […] which can be quantitated spectrophotometrically. The greater the absorbance the greater the number of live cells. The results are expressed as an IC50, which is the drug concentration required to inhibit cell proliferation (i.e. absorbance at 450 nm) to 50% of that of untreated control cells. The IC50 values for compounds evaluated in this assay are evaluated in Table I.
^1 Cytoxicity was determined after a 72 hour exposure by MTS assay.

The mark [1] stands for this setting: 72 hour exposure, MTS assay, test comparing Ie with paclitaxel, run on a different day.

With `COCO[C@H]1C[C@H]2OC[C@@]2(OC(C)=O)[C@H]2[C@H](OC(=O)c3ccccc3)[C@]3(O)C[C@H](OC(=O)[C@H](O)[C@@H](NC(=O)c4ccccc4)c4ccccc4)C(C)=C(C4(CO4)C(=O)[C@]12C)C3(C)C` (stereo partly shown) [Compound Ie], the IC50 – broadly, the concentration that gives 50% inhibition – under setting [1] turned out to be 1.5 nM.
With `CC(=O)O[C@@]12CO[C@@H]1C[C@H](O)[C@@]1(C)C(=O)C3(CO3)C3=C(C)[C@@H](OC(=O)[C@H](O)[C@@H](NC(=O)c4ccccc4)c4ccccc4)C[C@@](O)([C@@H](OC(=O)c4ccccc4)[C@H]21)C3(C)C` (stereo partly shown) [Compound Ia], the IC50 amounted to 2 nM.
As for `CC(=O)O[C@H]1C(=O)[C@@]2(C)[C@H]([C@H](OC(=O)c3ccccc3)[C@]3(O)C[C@H](OC(=O)[C@H](O)[C@@H](NC(=O)c4ccccc4)c4ccccc4)C(C)=C1C3(C)C)[C@]1(OC(C)=O)CO[C@@H]1C[C@@H]2O` [paclitaxel], the IC50 reads like this: (72 hour exposure, MTS assay, test comparing Ia with paclitaxel) 2.9 nM; under setting [1], 1 nM.
